Where “and” joins values, the source holds several entries; their conditions need not be identical. Equal entries are not always repeated.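 A five-concentration, 48-hour dose response in 96-well plates underlies each endpoint, interpolated linearly between surrounding concentrations. GI50 marks 50% less growth. At the TGI there is no net growth.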
Experiments:
Experiment in all cases: NCI-60 cell line screen, 48 h
DU-145 prostate = system: DU-145 prostate
SNB-19 CNS = system: SNB-19 CNS
U251 CNS = system: U251 CNS
SK-MEL-28 melanoma = system: SK-MEL-28 melanoma
NCI-H522 lung = system: NCI-H522 lung
BT-549 breast = system: BT-549 breast
SK-MEL-5 melanoma = system: SK-MEL-5 melanoma

SMILES | GI50 (DU-145 prostate) | TGI (DU-145 prostate) | GI50 (SNB-19 CNS) [µM] | TGI (SNB-19 CNS) [µM] | GI50 (U251 CNS) | TGI (U251 CNS) | GI50 (SK-MEL-28 melanoma) | TGI (SK-MEL-28 melanoma) [µM] | GI50 (NCI-H522 lung) [µM] | TGI (NCI-H522 lung) [µM] | GI50 (BT-549 breast) | TGI (BT-549 breast) | TGI (SK-MEL-5 melanoma) | GI50 (SK-MEL-5 melanoma)
COC1CC2C=C(C)/C=C/C=C/C(=O)NC(c3ccccc3)C/C=C/CCC(O)CC(=O)C2=C1O (stereo not drawn) | 0.405 µM | 1.57 µM | 0.279 | 1.42 | 0.153 µM | 0.994 µM | 0.703 µM | 2.03 | 0.211 | 0.693 | 0.261 µM | 1.17 µM |  | 
CCCCNN |  | > 100 µM |  | > 100 |  | > 100 µM |  | > 100 |  | > 100 |  | > 100 µM | > 100 µM | 
OCCSCc1ccccc1 |  | > 100 µM |  | > 100 |  | > 100 µM |  | > 100 |  | > 100 |  | > 100 µM | > 100 µM | 
CCN1C(=S)N(CC)C2C1NC(=S)N2/N=C/C=C/c1ccccc1 (stereo not drawn) | 2.42 µM | 12.2 µM | 2.8 | 20.2 | 2.31 µM | 13 µM | 4.81 µM | 21 | 0.739 | 3.7 | 5.44 µM | 21.7 µM | 10.7 µM | 1.19 µM
CC/C=C\C[C@H](O)C/C=C1/C(=O)C=C[C@@H]1C/C=C\CCCC(=O)N(C)C | 3.27 µM | 15.4 µM | 3.19 | 14.1 | 1.32 µM | 3.91 µM | 1.96 µM | 4.31 | 1.33 | 2.98 |  |  | 3 µM | 1.6 µM
CC(C)(C)NCc1cc(C(C)(C)C)cc(-c2ccc(Cl)cc2)c1O |  | 24.7 µM |  | 30.5 |  | 24.1 µM |  | 28.2 |  | 24.8 |  | 27.9 µM | 29.7 µM | 
O=c1nc(Nc2cccc(Cl)c2)oc2cc(Cl)oc(=O)c12 | 10.4 µM | 25.3 µM | 20 | > 100 | 5.08 µM | 20.6 µM | 8.76 µM | 22.7 | 2.45 | 8.16 | 22.5 µM | 95.7 µM | 54.5 µM | 18.2 µM
C=C1C(=O)OC2CC1C(O)C/C(C)=C/CC/C(C)=C/C(O)CC2C (stereo not drawn) |  | 10.8 µM |  | 18.9 |  | 16.8 µM |  | 9.8 |  | 0.504 |  | 6.45 µM | 15.4 µM | 
Cc1sc(C)c(Cc2c(C)sc(C)c2CCl)c1CCl | > 100 µM | > 100 µM | > 100 | > 100 | > 100 µM | > 100 µM | > 100 µM | > 100 | > 100 | > 100 | > 100 µM | > 100 µM | > 100 µM | > 100 µM
CCOC(=O)C(Cc1c[nH]c2ccc(N(CCCl)CCCl)cc12)(NC(C)=O)C(=O)OCC | 14.6 µM and 7.62 µM | 70 µM and 58.1 µM | 19.6 | 312 | 10.6 µM and 7.88 µM | 35.4 µM and 35.3 µM | 31.6 µM and 23 µM | 238 | 0.17 | 1.93 | 16.3 µM and 12.2 µM | 39.3 µM and 50.2 µM | 25.5 µM and 137 µM | 7.34 µM and 24.5 µM

Reference: PubChem BioAssay (NCI)
